Measured values: the supplement of paper PMC10307832

These cell lines were tested with COC1=CC=C(C=C1)CN2C=CC3=C2C=C(C=C3)C(=O)NO + O=C(CCCCCCC(=O)Nc1ccccc1)NO [Vorinostat] (partner 1 µM) (assay: relative viability (nuclei count vs DMSO), 5 days (fraction); higher = more cells survive). Details: first compound 8 µM.
Summary of the method: (§1)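 Lung cancer cell lines in 1536-well plates got either a single drug or a fixed anchor-drug dose together with five library-drug doses (not always all listed) in √10 steps, by pin tool, on the day after seeding. Nuclei were counted after 5 days, and relative viability is the treated-to-vehicle ratio of nuclei counts. Values are medians of duplicate plates.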

Cell Line | relative viability
HCC-366 | 0.223

Each cell line was assayed with C[C@]1(c2nc3c(C(N)=O)cccc3[nH]2)CCCN1 [Veliparib] + Cc1cc(Nc2cc(N3CCN(C)CC3)nc(Sc3ccc(NC(=O)C4CC4)cc3)n2)n[nH]1 [Tozasertib] (partner 0.1 µM) in the same assay as above. Details: first compound 0.02 µM.
Summary of the method: as §1

Cell Line | relative viability
NCI-H2342 | 0.498
LU99A | 0.328
NCI-H1975 | 0.932
H3255 | 0.624
NCI-H2023 | 0.518
NCI-H2405 | 0.793
SK-LU-1 | 0.366
NCI-H1734 | 0.309
NCI-H1437 | 0.384
NCI-H596 | 0.838
HCC-15 | 0.361
NCI-H460 | 0.512
EMC-BAC-2 | 0.306
NCI-H2009 | 0.798
COR-L 105 | 0.35
NCI-H1395 | 0.684
NCI-H520 | 0.337
NCI-H1648 | 0.723
NCI-H358 | 0.121
HCC-78 | 0.402
EKVX | 0.333
EPLC-272H | 0.273
HCC-44 | 1.04
HCC-366 | 0.159

Same assay, conditions: first compound 0.06325 µM

Cell Line | relative viability
NCI-H2342 | 0.573
NCI-H1623 | 0.439
LU99A | 0.271
NCI-H1975 | 0.729
H3255 | 0.664
NCI-H2023 | 0.376
NCI-H2405 | 0.689
SK-LU-1 | 0.32
NCI-H1734 | 0.262
NCI-H1437 | 0.438
ABC-1 | 0.196
NCI-H596 | 0.774
HCC-15 | 0.356
NCI-H460 | 0.438
EMC-BAC-2 | 0.29
NCI-H2009 | 0.753
COR-L 105 | 0.307
NCI-H1395 | 0.787
NCI-H520 | 0.488
NCI-H1648 | 0.469
NCI-H358 | 0.107
HCC-78 | 0.381
EKVX | 0.362
NCI-H1650 | 0.441
EPLC-272H | 0.227
LK-2 | 0.152
HCC-366 | 0.147

Same assay, conditions: first compound 0.2 µM

Cell Line | relative viability
NCI-H2342 | 0.421
NCI-H1623 | 0.428
LU99A | 0.239
NCI-H1975 | 0.775
H3255 | 0.704
NCI-H2023 | 0.342
NCI-H2405 | 0.714
SK-LU-1 | 0.37
NCI-H1734 | 0.284
NCI-H1437 | 0.43
ABC-1 | 0.137
NCI-H596 | 0.99
HCC-15 | 0.464
NCI-H460 | 0.334
EMC-BAC-2 | 0.339
NCI-H2009 | 0.741
COR-L 105 | 0.434
NCI-H1395 | 0.754
NCI-H520 | 0.439
NCI-H1648 | 0.383
NCI-H358 | 0.106
HCC-78 | 0.404
EKVX | 0.426
NCI-H1650 | 0.486
EPLC-272H | 0.224
LK-2 | 0.159
HCC-44 | 1.15
HCC-366 | 0.108

Same assay, conditions: first compound 0.6325 µM

Cell Line | relative viability
NCI-H2342 | 0.504
NCI-H1623 | 0.461
LU99A | 0.245
NCI-H1975 | 0.699
H3255 | 0.612
NCI-H2023 | 0.431
NCI-H2405 | 0.724
SK-LU-1 | 0.344
NCI-H1734 | 0.268
NCI-H1437 | 0.406
ABC-1 | 0.175
NCI-H596 | 0.859
HCC-15 | 0.362
NCI-H460 | 0.478
EMC-BAC-2 | 0.286
NCI-H2009 | 0.745
COR-L 105 | 0.313
NCI-H1395 | 0.656
NCI-H520 | 0.47
NCI-H1648 | 0.405
NCI-H358 | 0.106
HCC-78 | 0.35
EKVX | 0.375
NCI-H1650 | 0.448
EPLC-272H | 0.2
LK-2 | 0.221
HCC-44 | 0.956
HCC-366 | 0.137

Same assay, conditions: first compound 2 µM

Cell Line | relative viability
NCI-H2342 | 0.508
NCI-H1623 | 0.444
LU99A | 0.279
NCI-H1975 | 0.723
H3255 | 0.538
NCI-H2023 | 0.367
NCI-H2405 | 0.777
SK-LU-1 | 0.343
NCI-H1734 | 0.269
NCI-H1437 | 0.399
ABC-1 | 0.17
NCI-H596 | 0.811
HCC-15 | 0.354
NCI-H460 | 0.308
EMC-BAC-2 | 0.286
NCI-H2009 | 0.854
COR-L 105 | 0.346
NCI-H1395 | 0.706
NCI-H520 | 0.503
NCI-H1648 | 0.363
NCI-H358 | 0.102
HCC-78 | 0.404
EKVX | 0.37
NCI-H1650 | 0.526
